The source of these data is publication PMC8014892, “Permeation Studies across Symmetric and Asymmetric Membranes in Microdroplet Arrays” (Analytical Chemistry, 2021).

Data set [1] is described as follows: Permeation across symmetric 100% DOPC DIBs in droplet pairs, fluorescence microscopy. The data set is classed as in vitro ADME. Particulars: for Permeation across the DIB (observation in words): pH 6.0, 100% DOPC DIBs, calcein observed for 2900 minutes; for Permeation across the DIB (observation in words) / Papp at 50 µM: 37 °C; for Papp at 50 µM: not told, droplet pairs, N = 27; for Papp at 50 µM / kad / kda: acceptor 100% DOPC. On the procedure:
The lipid-out approach was used to add phospholipids to the water/oil interface, i.e., lipids were dissolved in the oil phase. We purchased 1,2-dioleoyl-sn-glycero-3-phosphocholine (DOPC) and 1,2-dioleoyl-sn-glycero-3-phospho-L-serine (DOPS) as solutions in chloroform from Avanti Polar Lipids (Alabaster, AL, U.S.A.). We placed the required lipids in pear-shaped flasks and removed the chloroform with a rotary evaporator (Büchi Labortechnik AG, Flawil, Switzerland) forming a film. The lipid film was dissolved in a 1:1 (v/v) mix of hexadecane (reagent plus grade, Sigma–Aldrich) and squalane (Sigma–Aldrich) in an ultrasonication bath at 50 °C for ∼30 min. The final phospholipid concentration in oil was 0.625 mM for donor droplets and 1.25 mM for acceptor droplets.
We used either 100% DOPC or 30% DOPC and 70% DOPS mixtures (mole percentage). We filtrated the phospholipid-oil solution before use (0.45 μm pore size, RC 4 Male Luer Slip Minisart filters, Huberlab, Switzerland).
All aqueous solutions were prepared in LC–MS grade water (Fisher Scientific, Loughborough, U.K.). We used as buffers 20 mM 2-morpholinoethanesulfonic acid (MES, pH 6.0, Alfa Aesar), 20 mM phosphate buffer (pH 7.0, Acros Organics), 50 mM 4-(2-hydroxyethyl)-1-piperazineethanesulfonic acid (HEPES, pH 7.4, gibco, Paisley, U.K.), or 20 mM tris(hydroxymethyl)aminomethane (Tris, pH 8.0, VWR). […] PEG4-NBD was synthesized from succinimidyl 6-(N-(7-nitrobenz-2-oxa-1,3-diazol-4-yl)amino)hexanoate (NBD NHS-ester, Molecular Probes Life Technologies, Eugene, OR, U.S.A.) and amine-terminated poly(ethylene glycol)-4 alcohol (Amino-PEG4-OH, Quanta Biodesign, Plain City, OH, U.S.A.).[26] A 1:1 molar ratio of the NBD NHS-ester and Amino-PEG4-OH was reacted in a 10:1 (v/v) solution of chloroform (Sigma–Aldrich) and triethylamine (Brenntag Schweizerhall, Basel, Switzerland). The reaction was held at 45 °C for 2 h, followed by 22 °C for 12 h. Afterward, the reaction products were separated with a preparative liquid chromatography system (Prep 150 LC system, Waters). The mass of the product PEG4-NBD was confirmed with an LC–MS system (Ultimate 3000 MSQ, Dionex).
We placed the microarray plate in a removable temperature-controlled holder (T = 37 °C) with a transparent bottom, which was mounted on a motorized XY stage (HLD117, Prior) of an inverted fluorescence microscope (Olympus IX73). We carried out the experiments in an oil bath to reduce droplet evaporation. The plate holder was filled with ∼4 mL of 1:1 (v/v) hexadecane:squalane without phospholipids and 50 μL of water in all four edges to reduce droplet shrinkage. We used a self-made microfluidic T-junction device made of polycarbonate (PC) to generate droplets of ∼25 nL by continuously injecting the aqueous phase (flow rate: 0.5 μL/min) into the immiscible oil phase (flow rate: 2 μL/min). The droplets were transported through a capillary onto the microarray plate. In this time, the phospholipids in the oil aligned along the water/oil interface and formed a monolayer.[27],[28] We mounted the end of the capillary on a motorized Z stage (M-403.2PD, Physik Instrumente, Karlsruhe, Germany). The generated droplets were detected in the capillary holder with a custom-made optical droplet detection system.[22] This was utilized to selectively deposit a single droplet per predefined position by synchronizing droplet generation and capillary and microarray movements. All components of the microscope and the capillary were controlled by the software YouScope for automated microscopy (R2018, v2.1.0).[29]
Fluorescence and bright-field pictures were recorded using a light source (Lumen 300, Prior and TH4-200, Olympus) and a complementary metal oxide semiconductor (CMOS) camera (Zyla 4.2, Andor) connected to the Olympus IX73 microscope. To track fluorescein, calcein, and PEG4-NBD, a blue excitation filter set (exciter HQ470/40x, dichroic 500dcxr BS, and emitter E515lpv2; Chroma Technology Corp, Bellows Falls, VT, U.S.A.) was used. […]

Details of data set [2]: method as in PMID 19560324. Conditions: calcein permeation across liposome membranes; cited from earlier work.
A short description of data set [3]: Permeation over multiple compartments (one donor, four acceptor droplets in series). The data set is classed as in vitro ADME. Conditions: for Papp at 50 µM: not told. On the procedure: For several acceptor droplets in series, the numerical solutions of a differential equation system according to eqs 5 to 7 were fitted to the normalized fluorescence data of donor and acceptor droplets. The solutions of the differential equation system and the fitting were performed with the Matlab (version 2018a, Mathworks) functions ode15s, fmincon (minimizing the sum of squared residues), and MultiStart. [drawing 5] 5 [drawing 6] 6 [drawing 7] 7
W(n) is the fluorescence in the water phase of droplet n, k is the mass transfer rate constant (the fit parameter), and N is the total number of donor and acceptor droplets. The expression N > 2 equals 1 if N > 2 and 0 if N ≤ 2, and n < N equals 1 if n < N and 0 if n ≥ N.
Our platform allows for spotting droplet lines, instead of just pairs. With this, we can monitor how permeation and diffusion of compounds progress over several compartments. For creation of multiple droplets, connected via DIBs, we used a modified glass plate, where cavities were created in lines. Several fluorophore-free acceptor droplets were deposited in this line accordingly. The last droplet contained fluorescein, which permeates over the multiple compartments. […] Permeation at pH 7.4 was slower, which was expected from the experiments with the droplet pairs and from the ionization state of fluorescein (Supporting Information, Figure S11). The Papp,fit at pH 7.4 was (19.01 ± 1.16) × 10^–6 cm/s, higher than determined with the droplet pairs at pH 7.0 (7.05 ± 0.42) × 10^–6 cm/s. […] The lag phase observed at pH 7.0 (Supporting Information Figure S5) has a higher impact on the fit parameters in the assay with only two droplets (reducing the apparent rate constants) than with several droplets in series.

The conditions of data set [4]: cited from earlier work.
A short description of data set [5]: Label-free permeation analysis of droplet pairs by LC-MS. Conditions: not told, pH 6, pH 6.0, LC-MS, N = 4. Type of data set: in vitro ADME. On the procedure: For subsequent LC–MS analysis, we used a recently developed protocol to split the droplet pairs.[24] The capillary used before for spotting of droplets was flushed with hexadecane/squalane (1:1) and placed between two connecting droplets to separate the droplet pairs. To extract individual droplets, the capillary was flushed with fluorinated oil (HFE-7500, 3 M Novec, Hadfield, U.K.) and connected to a 50 μL glass syringe (Hamilton, Switzerland). The center of the capillary was lowered to a height where it slightly squeezed the droplet. Subsequently, by slowly pulling the glass syringe, the droplet was aspirated. Afterward, the capillary was moved over a small tube (TreffLab Degersheim, Switzerland), and the aspirated droplet was ejected. […]
The sample was analyzed in a 1260 II Infinity LC Quaternary system coupled to a single quadrupole atmospheric pressure ionization-electrospray (API-ES) G6130B mass spectrometer (Agilent). […] All analytes were detected with selected ion monitoring (SIM) in a positive mode. […]
Equations 1 and 2 were fitted to the data with OriginPro. […] Data from every droplet pair were individually fitted and evaluated. […] We further approximated that the area of the droplet interface bilayer is circular,[32] and we calculated the area (A) for the individual droplet pairs via the measured droplet interface bilayer diameter from the bright-field images (as indicated in Table S1). […]

Data set [6] can be described thus: Permeation across symmetric and asymmetric DIBs containing 30% DOPC 70% DOPS, droplet pairs, fluorescence microscopy. The data set is classed as in vitro ADME. Conditions: not told.
Experimental: We placed the microarray plate in a removable temperature-controlled holder (T = 37 °C) with a transparent bottom, which was mounted on a motorized XY stage (HLD117, Prior) of an inverted fluorescence microscope (Olympus IX73). We carried out the experiments in an oil bath to reduce droplet evaporation. […] The generated droplets were detected in the capillary holder with a custom-made optical droplet detection system.[22] […]
Fluorescence and bright-field pictures were recorded using a light source (Lumen 300, Prior and TH4-200, Olympus) and a complementary metal oxide semiconductor (CMOS) camera (Zyla 4.2, Andor) connected to the Olympus IX73 microscope. […]
The recorded fluorescence signals were evaluated using Fiji[30] and OriginPro (2019, 9.6, OriginLab Corporation). First, we subtracted the background fluorescence for data evaluation. In a next step, we normalized the fluorescence to compensate for potential leakage into the oil phase, membrane partitioning, shrinkage of droplets, or fluorescence bleaching. For the normalization, the sum of fluorescence of all droplets in the first image was set to 100%. […]

One may read the Papp as a coefficient for how fast a substance crosses the barrier.

SMILES strings stand for the structures. Entries after “also recorded” stand apart in the source; their conditions may differ. Read-outs that look alike come from different tables or passages of the source.

For the compound `O=C(O)CN(CC(=O)O)Cc1cc2c(cc1O)Oc1cc(O)c(CN(CC(=O)O)CC(=O)O)cc1C21OC(=O)c2ccccc21` [calcein], the “Permeation across the DIB (observation in words)” value in data set [1] is recorded as “no permeation was observed”; in data set [1] (listed as Calcein), “did not permeate; also recorded: No permeation observed”. In addition, in data set [2], the permeability coefficients is listed as 10^–10 to 10^–11 cm/s.

As for `O=C1OC2(c3ccc(O)cc3Oc3cc(O)ccc32)c2ccccc21` [fluorescein], the Papp at 50 µM is 193 ± 17.8 ×10⁻⁶ cm/s in data set [1] (pH 6, donor 100% DOPC); 7.05 ± 0.42 ×10⁻⁶ cm/s in data set [1] (pH 7, donor 100% DOPC); 1.05 ± 0.06 ×10⁻⁶ cm/s in data set [1] (pH 8, donor 100% DOPC); 200 ± 9.73 ×10⁻⁶ cm/s in data set [3] (pH 6, one donor to four acceptor droplets, 100% DOPC, eqs 5–7 and 3, N = 12 droplet networks); 19 ± 1.16 ×10⁻⁶ cm/s in data set [3] (pH 7.4, one donor to four acceptor droplets, eqs 5–7 and 3). The “Permeation across the DIB (observation in words)” value in data set [1] is listed as “permeated across the DIB”. The kad in data set [1] (pH 6, donor 100% DOPC) is given as 4046.0 × 10-6 (1/s); in data set [1] (pH 7, donor 100% DOPC) it was 145.0 × 10-6 (1/s); in data set [1] (pH 8, donor 100% DOPC), 20.3 × 10-6 (1/s). Besides, the kda in data set [1] (pH 6, donor 100% DOPC) is recorded as 4046.0 × 10-6 (1/s); in data set [1] (pH 7, donor 100% DOPC), 145.0 × 10-6 (1/s); in data set [1] (pH 8, donor 100% DOPC) it was 20.3 × 10-6 (1/s). The “Time until equilibrium was reached in all five droplets” value in data set [3] (pH 6, five droplets in series) was “approximately 30 min”. Moreover, the permeation constant in data set [4] (pH 6.4, Nisisako et al.) was 60.0 ± 22.4 × 10^–6 cm/s; in data set [4] (pH 7.4, Schlicht and Zagnoni), 2.01 ± 1.46 × 10^–6 cm/s; in data set [4] (pH 7.5, Nisisako et al.), 5.1 ± 1.8 × 10^–6 cm/s.

Turning to `CC/N=c1\cc2oc3cc(NCC)c(C)cc3c(-c3ccccc3C(=O)OCC)c-2cc1C` [rhodamine 6G], the Papp at 50 µM in data set [1] (pH 6, donor 100% DOPC) was 10.4 ×10⁻⁶ cm/s; in data set [5] (eq 3, fit of all data, read-out: Papp.fit (MS)), 6.28 ± 0.68 ×10⁻⁶ cm/s; in data set [5] (eq 4, sink condition, first two data points, read-out: Papp.sink (MS)), 9.42 ± 2.17 ×10⁻⁶ cm/s; in data set [6] (pH 6, pH 6, donor 30% DOPC 70% DOPS, acceptor 30% DOPC 70% DOPS (symmetric)), 12.1 ×10⁻⁶ cm/s; in data set [6] (pH 6, pH 6, donor 30% DOPC 70% DOPS, acceptor 100% DOPC (asymmetric)), 19.6 ×10⁻⁶ cm/s; in data set [6] (pH 6, pH 6, donor 100% DOPC, acceptor 30% DOPC 70% DOPS (asymmetric)) it was 6.56 ×10⁻⁶ cm/s. Further, the kad in data set [1] (pH 6, donor 100% DOPC) was 166.8 × 10-6 (1/s). The kda in data set [1] (pH 6, donor 100% DOPC) is given as 166.8 × 10-6 (1/s).
